The values that follow come from ChEMBL document CHEMBL5046276 (J Med Chem, 2022).

For series [1], the target named is T1, NAD-dependent protein deacetylase sirtuin-2 (Homo sapiens, UniProt Q8IXJ6).
T1 sequence (Q8IXJ6 whole entry): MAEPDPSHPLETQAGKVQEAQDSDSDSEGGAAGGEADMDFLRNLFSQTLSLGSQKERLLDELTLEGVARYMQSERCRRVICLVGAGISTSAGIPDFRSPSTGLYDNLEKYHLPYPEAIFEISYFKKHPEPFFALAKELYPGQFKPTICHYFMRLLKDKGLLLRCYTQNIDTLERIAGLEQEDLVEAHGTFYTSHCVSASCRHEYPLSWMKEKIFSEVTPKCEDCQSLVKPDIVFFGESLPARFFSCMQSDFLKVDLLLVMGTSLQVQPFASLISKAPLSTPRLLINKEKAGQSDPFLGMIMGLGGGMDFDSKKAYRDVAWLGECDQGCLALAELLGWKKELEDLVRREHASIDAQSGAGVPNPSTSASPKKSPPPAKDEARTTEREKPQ
The experiment in a line: Inhibition of human C-terminal His-tagged SIRT2 (50 to 356 residues) expressed in Escherichia coli using Ac-peptide as substrate incubated for 4 hrs followed by trypsin addition and further incubated for 2 hrs.

The test system of series [2] is Plasmodium falciparum. The experiment in a line: Antimalarial activity against asexual blood stage chloroquine-resistant Plasmodium falcipuram GB4 assessed as parasite growth inhibition incubated for 72 hrs by SYBR Green I staining based fluorescence analysis. The series is classed as functional, organism-based. Particulars: GB4, 72 h.
Series [3] has as its system Plasmodium falciparum. The experiment in a line: Antimalarial activity against asexual blood stage wild-type Plasmodium falciparum 3D7 assessed as parasite growth inhibition incubated for 72 hrs by SYBR Green I staining based fluorescence analysis. The series is classed as functional, organism-based. The following applies: 3D7, 72 h.
The test system of series [4] is Plasmodium falciparum. The experiment in a line: Antimalarial activity against asexual blood stage chloroquine-resistant Plasmodium falciparum Dd2 assessed as parasite growth inhibition incubated for 72 hrs by SYBR Green I staining based fluorescence analysis. The series is classed as functional, organism-based. The following applies: Dd2, 72 h.
Series [5] has as its system Plasmodium falciparum. The experiment in a line: Antimalarial activity against asexual blood stage quinine-resistant Plasmodium falcipuram C2A assessed as parasite growth inhibition incubated for 72 hrs by SYBR Green I staining based fluorescence analysis. The series is classed as functional, organism-based.
Series [6] relates to Plasmodium falciparum. The experiment in a line: Antimalarial activity against asexual blood stage sulfadoxine-pyrimethamine/mefloquine-resistant Plasmodium falcipuram CP286 assessed as parasite growth inhibition incubated for 72 hrs by SYBR Green I staining based fluorescence analysis. The series is classed as functional, organism-based. The following applies: CP286, 72 h.

For series [7], the system named is Plasmodium falciparum. The experiment in a line: Antimalarial activity against ART-resistant Plasmodium falcipuram 6218 harbouring C580Y mutant infected in human RBC assessed as reduction in parasitemia in blood smear by measuring parasite survival ratio at ring stage at upto 700 nM incubated for 6 hrs followed by compound washout and replacement with fresh medium without compounds and measured after 66 hrs by ring stage survival assay. The following applies: dose nM <=700. The series is classed as functional.

Series [8] deals with Plasmodium falciparum. The series can be described thus: Antimalarial activity against wild-type Plasmodium falcipuram 3D7 infected in human RBC assessed as reduction in parasitemia in blood smear by measuring parasite survival ratio at ring stage at upto 700 nM incubated for 6 hrs followed by compound washout and replacement with fresh medium without compounds and measured after 66 hrs by ring stage survival assay. The series is classed as functional. Particulars: dose nM <=700.

In series [9] the test system is Plasmodium falciparum. The series can be described thus: Antimalarial activity against ART-resistant Plasmodium falcipuram 6320 harbouring C580Y mutant infected in human RBC assessed as reduction in parasitemia in blood smear by measuring parasite survival ratio at ring stage at upto 700 nM incubated for 6 hrs followed by compound washout and replacement with fresh medium without compounds and measured after 66 hrs by ring stage survival assay. Particulars: dose nM <=700. The series is classed as functional.

The nature of series [10]: Metabolic stability in mouse liver microsomes assessed as intrinsic clearance at […] incubated for 45 mins in presence of NADPH by LC/MS analysis. The series is classed as ADME, Microsome. The following applies: read-out: CLH. (In general: Liver microsomes are vesicles of endoplasmic reticulum, rich in cytochrome P450 enzymes.)
Series [11] concerns Plasmodium yoelii. The series can be described thus: Antimalarial activity against blood stage Plasmodium yoelii infected in BALB/c mouse assessed as parasite killing by measuring RBC cells in blood smear at 60 mg/kg, ip qd for 5 days by microscopic analysis. The series is classed as functional, organism-based. The following applies: Erythrocyte, time 5.0 day.
The test system of series [12] is Plasmodium yoelii. The experiment in a line: Antimalarial activity against blood stage Plasmodium yoelii infected in BALB/c mouse assessed as parasitemia at 60 mg/kg, ip qd for 5 days and measured after 16 days. The series is classed as functional. Particulars: time 16 day.
Series [13] is described as follows: Cytotoxicity against HEK293T cells incubated for 72 hrs by CCK-8 assay. Particulars: human.
The nature of series [14]: Selectivity index, ratio of IC50 for cytotoxicity against human HepG2 cells to IC50 for antimalarial activity against asexual blood stage wild-type Plasmodium falciparum 3D7. The series is classed as toxicity, cell-based. The following applies: read-out: Ratio IC50.
A short description of series [15]: Metabolic stability in mouse liver microsomes assessed as half life at […] incubated for 45 mins in presence of NADPH by LC/MS analysis. The series is classed as ADME, Microsome. Particulars: for half-life: liver microsomes.
Series [16] in a line: Selectivity index, ratio of IC50 for cytotoxicity against HEK293T cells to IC50 for antimalarial activity against asexual blood stage wild-type Plasmodium falciparum 3D7. The series is classed as toxicity, cell-based. Particulars: human, read-out: Ratio IC50.
The nature of series [17]: Cytotoxicity against human HepG2 cells incubated for 72 hrs by CCK-8 assay. In general terms: Tetrazolium dyes change colour on reduction, which living cells bring about.
Series [18] concerns Plasmodium yoelii. The series can be described thus: Antimalarial activity against blood stage Plasmodium yoelii infected in BALB/c mouse assessed as parasitemia at 60 mg/kg, ip qd for 5 days and measured after 14 days. The series is classed as functional. Particulars: time 14 day.

The source made the active and inactive calls. The rule behind the calls is not given here. A value given as a limit tells only on which side of the number the result lay.

In general, IC50 refers to the concentration at which inhibition is half-maximal. In series [1], `Cc1ccc(C(=O)Nc2ccc(S(=O)(=O)O)c3cc(S(=O)(=O)O)cc(S(=O)(=O)O)c23)cc1NC(=O)c1cccc(NC(=O)Nc2cccc(C(=O)Nc3cc(C(=O)Nc4ccc(S(=O)(=O)O)c5cc(S(=O)(=O)O)cc(S(=O)(=O)O)c45)ccc3C)c2)c1` [SURAMIN] had a half-maximal inhibitory concentration (IC50) of 5440 nM.

Turning to `C[C@H]1[C@@H](O)O[C@@H]2O[C@@]3(C)CC[C@H]4[C@H](C)CC[C@@H]1[C@@]24OO3` [ARTENIMOL], the concentration for half-maximal inhibition (IC50) in the series with Plasmodium falciparum [2] was 2.34 nM; in the series with Plasmodium falciparum [3], 2.85 nM; in the series on Plasmodium falciparum [4], 2.78 nM; in the series on Plasmodium falciparum [5] it was 2.08 nM; with Plasmodium falciparum [6] it was 8.1 nM.

In the case of `C[C@@H]1CC[C@H]2[C@@H](C)C(=O)O[C@@H]3O[C@@]4(C)CC[C@@H]1[C@]32OO4` [ARTEMISININ], the Activity with Plasmodium falciparum [7] is given as 8%; in the series with Plasmodium falciparum [8], 0.1%; in the series with Plasmodium falciparum [9] it was 8%.

What is called half-life is how long it takes for the measured level to halve. For the compound `Cl.Cn1c(CN2CC3(CCN(c4ncc(C(=O)NO)cn4)C3)C2)nc2ccccc21`, the half-inhibitory concentration (IC50) in the series on Plasmodium falciparum [2] was determined as 4.64 nM; with Plasmodium falciparum [3] it was 1.84 nM; with Plasmodium falciparum [4] it was 3.99 nM; in the series on Plasmodium falciparum [5] it was 3.8 nM; with Plasmodium falciparum [6] it was 9.87 nM. The CLint scaled in series [10] is 40.7 mL/min/kg. In addition, in the series on Plasmodium yoelii [11], the outcome was inactive. Moreover, the Activity with Plasmodium yoelii [12] turned out to be 16.57%. Further, the IC50 at 72 h in [13] is 9330 nM; in series [17], above 9450 nM. Besides, the selectivity ratio in series [14] was above 5140; in [16], 5070. Further, the half-life in [15] came out at 2.23 h.

Consider `Cl.Cn1cc(CN2CC3(CCN(c4ncc(C(=O)NO)cn4)C3)C2)c2ccc(Br)cc21`, for which, in series [10], the CLint scaled was 13.7 mL/min/kg. Moreover, the IC50 in the series on Plasmodium falciparum [3] was 1.97 nM; in the series with Plasmodium falciparum [4] it was 2.39 nM. Also, the IC50 at 72 h in series [13] was 720 nM; in [17], 750 nM. In addition, the selectivity ratio in series [14] came out at 381; in series [16], 365. Besides, the half-life in [15] worked out at 6.64 h.

As to `Cl.Cn1cc(CN2CC3(CCN(c4ncc(C(=O)NO)cn4)C3)C2)c2ncccc21`, the concentration for half-maximal inhibition (IC50) came out at 4.47 nM in the series with Plasmodium falciparum [2]; 2.67 nM in the series with Plasmodium falciparum [3]; 3.08 nM in the series on Plasmodium falciparum [4]; 3.76 nM with Plasmodium falciparum [5]; 13.1 nM in the series on Plasmodium falciparum [6]. Besides, the result with Plasmodium yoelii [11] was inactive. Also, the IC50 at 72 h is above 20000 nM in series [13] and 20000 nM in [17]. In the series with Plasmodium yoelii [18], the Activity was determined as 46.37%. For the same compound, the selectivity ratio in [14] and in series [16] was above 7490 each time. The t1/2 in [15] (microsomes, 0.75 h, 10000 µM) was determined as 2.9965 h.

Consider `Cl.O=C(NO)c1cnc(N2CCC3(CN(Cc4cnc5ccccc5c4)C3)C2)nc1`, for which, in [10], the CLint scaled is 410 mL/min/kg. In addition, the values for the IC50 in the series with Plasmodium falciparum [3] and in the series on Plasmodium falciparum [4] were 3.8 nM and 2.58 nM, respectively. In addition, the IC50 at 72 h in [13] came out at 3620 nM; in series [17], 2040 nM. In addition, the values for the selectivity ratio in series [14] and in series [16] were 537 and 953, respectively. For the same compound, the half-life in [15] amounted to 0.222 h.
